Measured values reported in ChEMBL document CHEMBL1150571, “Hipposulfates A and B, new sesterterpene sulfates from an Okinawan sponge, Hippospongia cf. metachromia” (J Nat Prod, 2001).

Legend:
Format in all cases: functional, cell-based
SK-MEL-28 = assay: Cytotoxicity against human SK-MEL-28 cells
P388 = assay: Cytotoxicity against mouse P388 cells
HT-29 = assay: Cytotoxicity against human HT-29 cells
A549 = assay: Cytotoxicity against human A549 cells

Measured: IC50

CC1=CC[C@H]2C(C)(C)CCC[C@]2(C)[C@H]1CC/C(=C\OS(=O)(=O)[O-])CCC/C(C)=C/Cc1cc(O)ccc1O.[Na+] [HIPPOSULFATE A]
2 µg/mL: SK-MEL-28 | P388 | HT-29 | A549
